Measured values as given in article PMC4770093, “The role of kinetic context in apparent biased agonism at GPCRs” (Nature Communications, 2016).

Molecular target: D2LR (Homo sapiens, UniProt P14416)
Test: [3H]spiperone kinetic (dissociation, association, competition association) binding
Design: expressed in transfected cells
Conditions: [3H]spiperone tracer
Procedure: The cells were harvested in PBS containing 2 mM EDTA and centrifuged at 300 g for 3 min. The resulting pellet was resuspended in ice-cold assay buffer (20 mM HEPES, 100 mM NaCl, 6 mM MgCl2, 1 mM EGTA and 1 mM EDTA pH 7.4) and the centrifugation step was repeated. The intact cell pellet was then resuspended in assay buffer and homogenized using a Polytron homogenizer. After centrifugation (1,000 g, 10 min), the pellet was discarded and the supernatant was recentrifuged at 30,000 g for 1 h at 4 °C using a Sorvall Evolution RC ultracentrifuge (Thermo Scientific). The resulting pellet was resuspended in assay buffer and stored in 250 μl aliquots at −80 °C. Membrane protein concentration was determined using the method of Bradford.
All radioligand binding experiments were conducted at 37 °C in a 1-ml reaction volume in assay buffer (20 mM HEPES, 100 mM NaCl, 6 mM MgCl2, 1 mM EGTA and 1 mM EDTA pH 7.4) containing 100 μM GppNHp and 0.1% ascorbic acid. In all cases, nonspecific binding was determined in the presence of 10 μM haloperidol. […] Filter-bound radioactivity was measured by scintillation spectrometry after the addition of 3.5 ml of Ultima Gold (PerkinElmer) using a Tri-Carb 2900TR liquid scintillation counter (PerkinElmer).
The kinetic parameters of unlabelled agonists were determined using the equations described by Motulsky and Mahan[31]. […]

Sequence of D2LR (P14416 whole entry): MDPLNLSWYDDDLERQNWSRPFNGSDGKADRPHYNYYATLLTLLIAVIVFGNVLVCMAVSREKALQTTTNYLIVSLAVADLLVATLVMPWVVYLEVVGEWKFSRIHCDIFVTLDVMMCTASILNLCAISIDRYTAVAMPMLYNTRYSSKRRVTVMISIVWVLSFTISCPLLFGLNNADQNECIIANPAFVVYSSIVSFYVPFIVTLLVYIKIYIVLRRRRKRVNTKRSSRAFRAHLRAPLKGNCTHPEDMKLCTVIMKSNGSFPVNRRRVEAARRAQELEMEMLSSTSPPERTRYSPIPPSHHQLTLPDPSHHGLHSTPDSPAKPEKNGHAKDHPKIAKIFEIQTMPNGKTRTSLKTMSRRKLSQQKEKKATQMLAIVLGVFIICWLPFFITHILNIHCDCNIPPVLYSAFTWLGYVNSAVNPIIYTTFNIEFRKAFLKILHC

O=c1[nH]c2cccc(N3CCN(Cc4cccc(-c5ccccc5)c4)CC3)c2o1 [Bifeprunox, bifeprunox]
koff (Flp-In-CHO-D2LR membranes, 100 μM GppNHp, 37 °C): 0.000167 s⁻¹
Kd (read-out: pKd (affinity determined from kinetic parameters) (converted)): 0.1 nM
